Test results published in patent US12428406B2 (PMV Pharmaceuticals, Inc., priority 2019, dated 2025).

Target: T1, p53 Y220C (Homo sapiens, UniProt P04637, Y220C)
T1 construct: The recombinant protein was a truncation mutant containing only amino acids 94-312 of p53; made in house; host or cells: E. coli
Experiment: In vitro DNA binding activity assay (HTRF / TR-FRET): stabilization of p53 Y220C and increase of its DNA binding activity
Assay type: biochemical
Settings: recombinant His-tagged p53 Y220C DNA binding domain (aa 94-312), biotin-labeled consensus DNA, incubated at 27° C. or 29° C. for 60 min
Method in brief: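 Stabilization of the mutant is inferred from increased binding of His-tagged p53 Y220C to a biotin-labeled consensus DNA, detected by HTRF with europium-streptavidin and APC-anti-His antibody. The concentration giving a 50% rise over compound-free binding is reported as SC150.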

T1 sequence (P04637 94-312, change not shown): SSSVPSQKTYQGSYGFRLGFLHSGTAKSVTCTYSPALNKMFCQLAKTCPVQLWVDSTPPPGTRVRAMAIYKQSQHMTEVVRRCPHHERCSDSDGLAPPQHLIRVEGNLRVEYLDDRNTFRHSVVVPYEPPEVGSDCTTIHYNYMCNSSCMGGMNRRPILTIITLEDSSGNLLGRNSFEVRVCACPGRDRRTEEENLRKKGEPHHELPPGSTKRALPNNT

SC150 (concentration of the compound required to increase the DNA binding activity by 50%) | SMILES
++++ (++++ = 0.2 μM ≤ SC150 < 1 μM) | COc1cc(S(C)(=O)=O)ccc1NCC#Cc1cc2c(NC(=O)N[C@H]3CC[C@@H](N(C)C)CC3)cccc2n1CC(F)(F)F [Compound 10A, 3-(2-{3-[(4-methanesulfonyl-2-methoxyphenyl)amino]prop-1-yn-1-yl}-1-(2,2,2-trifluoroethyl)-1H-indol-4-yl)-1-[(1S,4S)-4-(dimethylamino)cyclohexyl]urea]
++++ (++++ = 0.2 μM ≤ SC150 < 1 μM) | COc1cc(S(C)(=O)=O)ccc1NCC#Cc1cc2c(NC(=O)Nc3ccncc3)cccc2n1CC(F)(F)F [Compound 11A, 1-(2-(3-((2-methoxy-4-(methylsulfonyl)phenyl)amino)prop-1-yn-1-yl)-1-(2,2,2-trifluoroethyl)-1H-indol-4-yl)-3-(pyridin-4-yl)urea]
+ (+ = 0 μM ≤ SC150 < 0.05 μM) | COc1cc(S(C)(=O)=O)ccc1NCC#Cc1cc2c(NC(=O)N[C@H]3CC[C@H](N(C)C)CC3)cccc2n1CC(F)(F)F [Compound 12A, 3-(2-{3-[(4-methanesulfonyl-2-methoxyphenyl)amino]prop-1-yn-1-yl}-1-(2,2,2-trifluoroethyl)-1H-indol-4-yl)-1-[(1R,4R)-4-(dimethylamino)cyclohexyl]urea]
++++ (++++ = 0.2 μM ≤ SC150 < 1 μM) | COCCN1CCC(NC(=O)Nc2cccc3c2cc(C#CCNc2ccc(S(C)(=O)=O)cc2OC)n3CC(F)(F)F)CC1 [Compound 13A, 3-(2-{3-[(4-methanesulfonyl-2-methoxyphenyl)amino]prop-1-yn-1-yl}-1-(2,2,2-trifluoroethyl)-1H-indol-4-yl)-1-[1-(2-methoxyethyl)piperidin-4-yl]urea]
++++ (++++ = 0.2 μM ≤ SC150 < 1 μM) | COc1cc(S(C)(=O)=O)ccc1NCC#Cc1cc2c(NC(=O)NC3CCN(C4CCOCC4)CC3)cccc2n1CC(F)(F)F [Compound 14A, 3-(2-{3-[(4-methanesulfonyl-2-methoxyphenyl)amino]prop-1-yn-1-yl}-1-(2,2,2-trifluoroethyl)-1H-indol-4-yl)-1-[1-(oxan-4-yl)piperidin-4-yl]urea]
++++ (++++ = 0.2 μM ≤ SC150 < 1 μM) | COc1cc(S(C)(=O)=O)ccc1NCC#Cc1cc2c(NC(=O)NC3CCN(CC(O)CO)CC3)cccc2n1CC(F)(F)F (centres unmarked) [Compound 15A, 1-[1-(2,3-dihydroxypropyl)piperidin-4-yl]-3-(2-{3-[(4-methanesulfonyl-2-methoxyphenyl)amino]prop-1-yn-1-yl}-1-(2,2,2-trifluoroethyl)-1H-indol-4-yl)urea]
++++ (++++ = 0.2 μM ≤ SC150 < 1 μM) | COc1cc(S(C)(=O)=O)ccc1NCC#Cc1cc2c(NC(=O)NC3CCN(CC(N)=O)CC3)cccc2n1CC(F)(F)F [Compound 16A, 2-(4-{[(2-{3-[(4-methanesulfonyl-2-methoxyphenyl)amino]prop-1-yn-1-yl}-1-(2,2,2-trifluoroethyl)-1H-indol-4-yl)carbamoyl]amino}piperidin-1-yl)acetamide]
++++ (++++ = 0.2 μM ≤ SC150 < 1 μM) | COc1cc(S(C)(=O)=O)ccc1NCC#Cc1cc2c(NC(=O)NC3CCN(CCO)CC3)cccc2n1CC(F)(F)F [Compound 17A, 1-[1-(2-hydroxyethyl)piperidin-4-yl]-3-(2-{3-[(4-methanesulfonyl-2-methoxyphenyl)amino]prop-1-yn-1-yl}-1-(2,2,2-trifluoroethyl)-1H-indol-4-yl)urea]
+ (+ = 0 μM ≤ SC150 < 0.05 μM) | COc1cc(S(N)(=O)=O)ccc1NCC#Cc1cc2c(NC3CC4(COC4)C3)cccc2n1CC(F)(F)F [Compound 18A]
+ (+ = 0 μM ≤ SC150 < 0.05 μM) | COc1cc(S(C)(=O)=O)ccc1NCC#Cc1cc2c(NC3CC(CO)(CCl)C3)cccc2n1CC(F)(F)F (centres unmarked) [Compound 19A, [1-(chloromethyl)-3-[(2-{3-[(4-methanesulfonyl-2-methoxyphenyl)amino]prop-1-yn-1-yl}-1-(2,2,2-trifluoroethyl)-1H-indol-4-yl)amino]cyclobutyl]methanol]
+ (+ = 0 μM ≤ SC150 < 0.05 μM) | COc1cc(S(C)(=O)=O)ccc1NCC#Cc1cc2c(NC3CC4(COC4)C3)cccc2n1CC(F)(F)F [Compound 20A, 2-{3-[(4-methane-sulfonyl-2-methoxy-phenyl)amino]prop-1-yn-1-yl}-N-{2-oxaspiro[3.3]heptan-6-yl}-1-(2,2,2-trifluoroethyl)-1H-indol-4-amine]
+ (+ = 0 μM ≤ SC150 < 0.05 μM) | COc1cc(S(N)(=O)=O)ccc1NCC#Cc1cc2c(NC3CC4(CNC4)C3)cccc2n1CC(F)(F)F [Compound 21A, 4-({3-[4-({2-azaspiro[3.3]heptan-6-yl}amino)-1-(2,2,2-trifluoroethyl)-1H-indol-2-yl]prop-2-yn-1-yl}amino)-3-methoxybenzene-1-sulfonamide]
+ (+ = 0 μM ≤ SC150 < 0.05 μM) | COc1cc(S(C)(=O)=O)ccc1NCC#Cc1cc2c(NC3CC4(CNC4)C3)cccc2n1CC(F)(F)F [Compound 22A, N-{2-azaspiro[3.3]heptan-6-yl}-2-{3-[(4-methane-sulfonyl-2-methoxy-phenyl)amino]prop-1-yn-1-yl}-1-(2,2,2-trifluoroethyl)-1H-indol-4-amine]
+ (+ = 0 μM ≤ SC150 < 0.05 μM) | CNC(=O)c1ccc(NCC#Cc2cc3c(N[C@H]4CC[C@H](NC)CC4)cccc3n2CC(F)(F)F)c(OC)c1 [Compound 23A, 3-methoxy-N-methyl-4-{[3-(4-{[(1R,4R)-4-(methylamino)cyclo-hexyl]amino}-1-(2,2,2-trifluoroethyl)-1H-indol-2-yl)prop-2-yn-1-yl]amino}benzamide]
+ (+ = 0 μM ≤ SC150 < 0.05 μM) | CNC(=O)c1ccc(NCC#Cc2cc3c(N[C@H]4CC[C@H](N)CC4)cccc3n2CC(F)(F)F)c(OC)c1 [Compound 24A, 3-methoxy-N-methyl-4-{[3-(4-{[(1R,4R)-4-aminocyclo-hexyl]amino}-1-(2,2,2-trifluoroethyl)-1H-indol-2-yl)prop-2-yn-1-yl]amino}benzamide]
+ (+ = 0 μM ≤ SC150 < 0.05 μM) | CNC(=O)c1ccc(NCC#Cc2cc3c(N[C@H]4CC[C@@H](N)CC4)cccc3n2CC(F)(F)F)c(OC)c1 [Compound 25A, 3-methoxy-N-methyl-4-{[3-(4-{[(1S,4S)-4-aminocyclohexyl]amino}-1-(2,2,2-trifluoroethyl)-1H-indol-2-yl)prop-2-yn-1-yl]amino}benzamide]
++ (++ = 0.05 μM ≤ SC150 < 0.1 μM) | COc1cc(S(C)(=O)=O)ccc1NCC#Cc1cc2c(N[C@@H]3CCCC[C@@H]3N)cccc2n1CC(F)(F)F [Compound 28A, (1R,2S)-N^1-(2-{3-[(4-methanesulfonyl-2-methoxyphenyl)amino]prop-1-yn-1-yl}-1-(2,2,2-trifluoroethyl)-1H-indol-4-yl)cyclo-hexane-1,2-diamine]
